According to ChEMBL document CHEMBL4680132, “Tuning isoform selectivity and bortezomib sensitivity with a new class of alkenyl indene PDI inhibitor” (Eur J Med Chem, 2020):
Activity calls are given as the source filed them. No cut-off for these calls is given here.

Key:
[1] = Inhibition of thioredoxin (unknown origin); design: species or system Homo sapiens
[2] = Inhibition of PDI (unknown origin) expressed in Escherichia coli BL21 (DE3) incubated for 1 hr and measured by insulin reduction assay; design: species or system Homo sapiens
[3] = biological target: T1, Protein disulfide-isomerase A3 (Homo sapiens, UniProt P30101); assay: Inhibition of PDIA3 (unknown origin) expressed in Escherichia coli BL21 (DE3) incubated for 1 hr and measured by insulin reduction assay
T1 sequence (P30101 whole entry): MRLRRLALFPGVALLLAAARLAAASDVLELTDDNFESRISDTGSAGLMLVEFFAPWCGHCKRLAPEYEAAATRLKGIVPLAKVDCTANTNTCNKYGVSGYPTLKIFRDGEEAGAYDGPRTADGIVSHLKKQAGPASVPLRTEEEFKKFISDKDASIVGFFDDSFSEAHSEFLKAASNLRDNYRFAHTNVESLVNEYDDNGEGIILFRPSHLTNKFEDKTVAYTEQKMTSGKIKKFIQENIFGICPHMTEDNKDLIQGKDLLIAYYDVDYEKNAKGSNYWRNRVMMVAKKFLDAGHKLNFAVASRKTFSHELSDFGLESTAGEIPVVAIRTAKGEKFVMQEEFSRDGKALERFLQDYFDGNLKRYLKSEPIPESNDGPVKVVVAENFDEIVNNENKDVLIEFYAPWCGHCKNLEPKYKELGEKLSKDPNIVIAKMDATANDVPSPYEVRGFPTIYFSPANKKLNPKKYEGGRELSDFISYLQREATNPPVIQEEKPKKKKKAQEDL

[4] = biological target: T2, Protein disulfide-isomerase A4 (Homo sapiens, UniProt P13667); assay: Inhibition of PDIA4 (unknown origin) expressed in Escherichia coli BL21 (DE3) incubated for 1 hr and measured by insulin reduction assay
T2 sequence (P13667 whole entry): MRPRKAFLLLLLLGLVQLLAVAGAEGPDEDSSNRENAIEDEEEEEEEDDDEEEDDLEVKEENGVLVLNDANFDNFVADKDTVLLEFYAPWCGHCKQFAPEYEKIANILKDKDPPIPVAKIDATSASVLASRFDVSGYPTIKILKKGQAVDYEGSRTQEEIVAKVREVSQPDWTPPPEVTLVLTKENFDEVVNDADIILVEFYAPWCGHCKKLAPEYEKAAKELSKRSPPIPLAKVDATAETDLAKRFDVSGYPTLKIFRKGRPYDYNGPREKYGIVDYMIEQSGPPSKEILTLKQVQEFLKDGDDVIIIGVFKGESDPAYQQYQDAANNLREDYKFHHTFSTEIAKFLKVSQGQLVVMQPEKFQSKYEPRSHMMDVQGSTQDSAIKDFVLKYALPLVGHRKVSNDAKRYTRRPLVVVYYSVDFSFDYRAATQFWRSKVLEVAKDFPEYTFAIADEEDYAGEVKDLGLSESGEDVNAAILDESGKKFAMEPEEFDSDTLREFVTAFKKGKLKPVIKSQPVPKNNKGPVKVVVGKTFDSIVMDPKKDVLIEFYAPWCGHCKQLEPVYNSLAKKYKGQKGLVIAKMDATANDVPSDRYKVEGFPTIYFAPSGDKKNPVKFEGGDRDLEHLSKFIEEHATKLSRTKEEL

[5] = biological target: Thioredoxin domain-containing protein 5 (Homo sapiens, UniProt Q8NBS9); assay: Inhibition of TXNDC5 (unknown origin)
Thioredoxin domain-containing protein 5, sequence (Q8NBS9 whole entry, the tested form may be a part): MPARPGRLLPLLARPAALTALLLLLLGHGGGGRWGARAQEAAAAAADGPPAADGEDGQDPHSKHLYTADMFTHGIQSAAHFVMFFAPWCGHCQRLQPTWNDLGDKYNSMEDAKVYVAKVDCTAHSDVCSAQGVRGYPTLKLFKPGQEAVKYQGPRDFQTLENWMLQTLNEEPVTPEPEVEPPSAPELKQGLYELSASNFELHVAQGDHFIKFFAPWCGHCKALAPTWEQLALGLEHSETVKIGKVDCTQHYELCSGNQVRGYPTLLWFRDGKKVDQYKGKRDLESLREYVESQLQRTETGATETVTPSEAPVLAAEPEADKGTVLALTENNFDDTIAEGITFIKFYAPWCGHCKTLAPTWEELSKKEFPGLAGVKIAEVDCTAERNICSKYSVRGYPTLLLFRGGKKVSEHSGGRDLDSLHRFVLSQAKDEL

[6] = biological target: T3, Protein disulfide-isomerase A6 (Homo sapiens, UniProt Q15084); assay: Inhibition of PDIA6 (unknown origin) expressed in Escherichia coli BL21 (DE3) incubated for 1 hr and measured by insulin reduction assay
T3 sequence (Q15084 whole entry): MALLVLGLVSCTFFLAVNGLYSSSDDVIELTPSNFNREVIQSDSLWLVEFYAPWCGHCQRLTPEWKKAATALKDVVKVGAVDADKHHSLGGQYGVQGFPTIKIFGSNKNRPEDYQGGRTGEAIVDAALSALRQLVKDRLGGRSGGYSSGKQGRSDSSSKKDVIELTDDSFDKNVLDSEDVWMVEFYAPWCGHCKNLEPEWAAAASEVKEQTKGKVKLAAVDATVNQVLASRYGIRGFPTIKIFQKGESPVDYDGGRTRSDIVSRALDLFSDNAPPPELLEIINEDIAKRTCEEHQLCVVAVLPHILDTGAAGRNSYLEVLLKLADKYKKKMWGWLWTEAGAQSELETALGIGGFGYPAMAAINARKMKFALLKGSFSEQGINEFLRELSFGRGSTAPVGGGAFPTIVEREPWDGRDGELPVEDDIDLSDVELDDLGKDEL

Cytochrome P450 3A4 = Cytochrome P450 3A4 (Homo sapiens, UniProt P08684); assay: Inhibition of CYP3A4 in human liver microsomes using midazolam as substrate incubated for 30 mins by LC-MS/MS analysis; assay type: ADME; conditions: 0.5 h
Cytochrome P450 3A4, sequence (P08684 whole entry): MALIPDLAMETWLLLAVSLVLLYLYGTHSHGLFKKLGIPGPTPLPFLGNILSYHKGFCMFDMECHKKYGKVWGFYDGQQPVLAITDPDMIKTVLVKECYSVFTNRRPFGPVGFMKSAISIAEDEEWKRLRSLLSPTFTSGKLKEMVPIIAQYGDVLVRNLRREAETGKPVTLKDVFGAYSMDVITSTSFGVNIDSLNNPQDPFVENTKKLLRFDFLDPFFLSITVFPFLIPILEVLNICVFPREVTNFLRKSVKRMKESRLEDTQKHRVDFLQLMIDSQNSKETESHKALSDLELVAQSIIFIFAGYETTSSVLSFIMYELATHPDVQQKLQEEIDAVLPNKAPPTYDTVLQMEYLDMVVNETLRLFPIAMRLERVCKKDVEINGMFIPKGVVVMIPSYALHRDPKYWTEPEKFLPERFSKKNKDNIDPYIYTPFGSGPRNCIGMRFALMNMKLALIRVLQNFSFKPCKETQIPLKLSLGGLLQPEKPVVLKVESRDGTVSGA

MM1.S [7] = assay: Inhibition of PDI in human bortezomib-resistant MM1.S cells assessed as induction of ATF4 levels at 0.5 uM incubated for 8 hrs by Western blot analysis
MM1.S [8] = assay: Inhibition of PDI in human bortezomib-resistant MM1.S cells assessed as induction of CHOP levels at 0.5 uM incubated for 8 hrs by Western blot analysis
MM1.S [9] = assay: Inhibition of PDI in human bortezomib-resistant MM1.S cells assessed as accumulation of poly-ubiquinated protein at 0.5 uM incubated for 8 hrs by Western blot analysis
MM1.S [10] = assay: Inhibition of PDI in human bortezomib-resistant MM1.S cells assessed as induction of Nrf2 levels at 0.5 uM incubated for 8 hrs by Western blot analysis

IC50 ([1]; read-out: IC50) [µM] | IC50 [2] [µM] | IC50 [3] [µM] | IC50 [4] [µM] | IC50 [5] [µM] | IC50 [6] [µM] | inhibition (INH) (Cytochrome P450 3A4) | IC50 [1] | Structure (SMILES) | ATF4 induction (activity call) (MM1.S [7]) | CHOP induction (activity call) (MM1.S [8]) | poly-ubiquitinated protein accumulation (qualitative) (MM1.S [9]) | Nrf2 induction (activity call) (MM1.S [10])
30.3 | 0.6 | 4.8 | 33.1 | 12.1 | 5.7 | Not Active | – | CCCCCCCC/C=C1\C=C(C(F)(F)F)c2cc(O)c(O)cc21 | Active | Active | Active | Active
– | – | – | – | – | – | – | – | FC(F)(F)C1=C/C(=C/CCCCCCOCc2ccccc2)c2cc3c(cc21)OCO3 | Active | Active | Active | Active
– | – | – | – | – | – | – | – | FC(F)(F)C1=C/C(=C\CC2CCCCC2)c2cc3c(cc21)OCO3 | Active | Active | Active | Active
– | – | – | – | – | – | – | – | CCCCCC/C=C1\C=C(C(F)(F)F)c2cc(O)c(O)cc21 | Active | Active | Active | Active
– | – | – | – | – | – | – | – | CCCCCC/C=C1\C=C(C(=O)O)c2cc(O)c(O)cc21 | Active | Active | Active | Active
– | – | – | – | – | – | – | – | CCCCCC/C=C1\C=C(C(F)(F)F)c2cc(OC)ccc21 | Active | Active | Active | Active
– | – | – | – | – | – | – | – | CCCCCC/C=C1\C=C(C(=O)OCC)c2cc(O)c(O)cc21 | Active | Active | Active | Active
– | – | – | – | – | – | – | – | CCCCCC/C=C1/C=C(C(F)(F)F)c2cc(O)c(O)cc21 | Active | Active | Active | Active
– | – | – | – | – | – | – | – | CCCCCCCC/C=C1/C=C(C(F)(F)F)c2cc(O)c(O)cc21 | Active | Active | Active | Active
– | – | – | – | – | – | – | – | FC(F)(F)C1=C/C(=C\CC2CCCC2)c2cc3c(cc21)OCO3 | Active | Active | Active | Active
– | 0.79 | 16.5 | > 100 | > 100 | 12 | Not Active | Not Active | CCCCCC/C=C1\C=C(C(F)(F)F)c2cc3c(cc21)OCO3 | Active | Active | Active | Active
– | – | – | – | – | – | – | – | COc1cc2c(cc1OC)/C(=C/CCCCCCOCc1ccccc1)C=C2C(F)(F)F | Active | Active | Active | Active
– | – | – | – | – | – | – | – | CCCCCCCC/C=C1\C=C(C(F)(F)F)c2cc(OC)c(OC)cc21 | Active | Active | Active | Active
– | – | – | – | – | – | – | – | FC(F)(F)C1=C/C(=C\CCCCCCOCc2ccccc2)c2cc3c(cc21)OCO3 | Active | Active | Active | Active
– | – | – | – | – | – | – | – | CCCCCC/C=C1\C=C(C(=O)NC)c2cc(O)c(O)cc21 | Active | Active | Active | Active
– | 1.12 | 20.8 | 61.6 | > 100 | 16.3 | – | Not Active | CCCCCCCC/C=C1/C=C(C(F)(F)F)c2cc(OC)c(OC)cc21 | Active | Active | Active | Active
– | – | – | – | – | – | – | – | CCCCCC/C=C1\C=C(C(F)(F)F)c2cc3c(cc21)OCCO3 | Active | Active | Active | Active
– | – | – | – | – | – | – | – | COc1cc2c(cc1OC)/C(=C\CCCCCCOCc1ccccc1)C=C2C(F)(F)F | Active | Active | Active | Active
